Measurements reported in US6906048B2, “N-acetylcolchinol-O-phosphate combination therapies with vascular damaging activity” (AstraZeneca AB, priority 2000, dated 2005).

Legend:
murine KHT sarcoma [1] = assay: KHT sarcoma tumour model, cisplatin plus ZD6126 (tumour cell survival, excision and colony formation); assay type: in vivo, mice; conditions: 10 mg/kg cisplatin i.p. alone, assessed 24 hours later
Protocol: In the murine KHT sarcoma model (Lingyun Li, B. S. et al, Int. J. Radiation Oncology Biol. Phys 42, 899-903, 1998) tumours were treated with either 10 mg/kg cisplatin i.p. alone or 10 mg/kg cisplatin plus ZD6126 (10-100 mg/kg i.p.), cisplatin given 1 hour prior to ZD6126. The effects of the treatments on tumour cell survival was assessed 24 hours later by excising the tumour, disaggregating the cells and determining the number of colonies formed after 10-14 days. Surviving fraction compared to untreated cells was then determined.

[2] = system: murine adenocarcinoma CaNT tumour; assay: CaNT tumour model, ZD6126 and cisplatin, first study (tumour growth delay); assay type: in vivo; conditions: study 1, female CBA mice; ZD6126 100 + 100 mg/kg i.p. 2 h apart on days 0, 2, 4; cisplatin 5 mg/kg i.p. day 0
Protocol: ZD6126 alone was dosed on days 0, 2 and 4 using a split dose regimen of 100 mg/kg ZD6126, followed by a 2 hour interval, followed by a further 100 mg/kg ZD6126; doses were given intraperitoneally (i.p.).
Cisplatin (David Bull Laboratories) alone was dosed at 5 mg/kg i.p on day 0.
The combination treatment consisted of: • Day 0: ZD6126 100 mg/kg i.p., followed by a 2 hour interval, followed by a further 100 mg/kg ZD6126 i.p; and cisplatin 5 mg/kg given 10 minutes before first ZD6126 dose. • Days 2 and 4: ZD6126 100 mg/kg i.p., followed by a 2 hour interval, followed by a further 100 mg/kg ZD6126 i.p.

[3] = system: human Calu 6 tumour cells; assay: Calu 6 tumour model, ZD6126 and cisplatin (tumour growth delay); assay type: in vivo; conditions: athymic nude mice; ZD6126 100 mg/kg i.p. daily x5 (days 0-4 alone, days 1-5 in combination); cisplatin 4 mg/kg i.p. day 0
Protocol: In a second tumour model, Calu 6, the advantage of combining ZD6126 and cisplatin (cis-Platinum(lI)Diammine Dichloride—Sigma P-4394) was confirmed. Athymic nude mice were implanted subcutaneously with 1×10^6 human Calu 6 tumour cells (obtained from American Type Culture Collection, 10801 University Boulevard, Manassas, Va. 20110-2209 Cat. no. HTB-56) and tumours allowed to grow until they were approximately 9 mm in diameter.
Groups of 10 tumour bearing mice were then treated as follows: • ZD6126 alone was dosed 100 mg/kg i.p. on days 0, 1, 2, 3, 4. • Cisplatin alone was dosed 4 mg/kg i.p. on day 0.
In the combination arm cisplatin 4 mg/kg i.p. was dosed on day 0, and ZD6126 100 mg/kg i.p. was dosed on days 1, 2, 3, 4 and 5.

[4] = system: murine adenocarcinoma CaNT tumour; assay: CaNT tumour model, ZD6126 and cisplatin, second study (tumour growth delay); assay type: in vivo; conditions: study 2, female CBA mice; ZD6126 100 + 100 mg/kg i.p. 2 h apart on days 0, 4, 7, 11; cisplatin 5 mg/kg i.p. days 0 and 7
Protocol: ZD6126 alone was dosed on days 0, 4, 7 and 11 using a split dose regimen of ZD6126 100 mg/kg i.p., followed by a 2 hour interval, followed by a further 100 mg/kg ZD6126 i.p.. Cisplatin alone was dosed at 5 mg/kg i.p on day 0 and day 7.
The combination treatment consisted of: • Days 0 and 7: ZD6126 100 mg/kg i.p., followed by a 2 hour interval, followed by a further 100 mg/kg ZD6126 i.p.; cisplatin given 10 minutes before first ZD6126 dose. • Days 3, 7 and 10: ZD6126 100 mg/kg i.p., followed by a 2 hour interval, followed by a further 100 mg/kg ZD6126 i.p..

[5] = system: murine adenocarcinoma CaNT tumour; assay: Cell survival assay, CaNT tumour model: effect of dosage interval and split dose proportions; assay type: in vivo, mice
Protocol: (§1) In vivo cell survival was measured using an excision assay (D J Chaplin et al., Anticancer Research 19: 189-196 (1999)).
(§2) Tumours were excised at about 18 hours after treatment, weighed and disaggregated for 1 hour at 37 degrees Celsius in an enzyme cocktail containing 1 mg/ml pronase, 0.5 mg/ml DNAase and 0.5 mg/ml collagenase. Haemocytometer counts of trypan blue-excluding cells were made and viable cells seeded in appropriate concentrations to yield about 50 colonies/dish after in vitro incubation. Heavily irradiated feeder cells (V79 cells) were used at a concentration of 25,000/ml to support the growth of the surviving CaNT cells. The data were calculated as surviving fraction per gram of tumour.
This improved effect varied with the proportion of total dose given in the first and second doses.
(§3) ZD6126 was administered as a single dose of […] intra-peritoneally (i.p.) in saline with a small amount of 1% sodium carbonate added to aid the dissolution of ZD6126.
ZD6126 was dosed using split dose regimens of: • i) 25 mg/kg ZD6126, followed by a 2 hour interval, followed by a further 175 mg/kg ZD6126; • ii) 50 mg/kg ZD6126, followed by a 2 hour interval, followed by a further 150 mg/kg ZD6126; • iii) 100 mg/kg ZD6126, followed by a 2 hour interval, followed by a further 100 mg/kg ZD6126; • iv) 150 mg/kg ZD6126, followed by a 2 hour interval, followed by a further 50 mg/kg ZD6126; • v) 175 mg/kg ZD6126, followed by a 2 hour interval, followed by a further 25 mg/kg ZD6126; All doses were given intraperitoneally (i.p.) in saline with a small amount of 1% sodium carbonate added to aid the dissolution of ZD6126.

[6] = system: murine adenocarcinoma CaNT tumour; assay: Cell survival assay, CaNT tumour model: effect of dosage interval; assay type: in vivo, mice; conditions: two doses of 100 mg/kg i.p. separated by 2, 3 or 4 hours; tumours excised about 18 hours after treatment
Protocol: as §1, §2, §3
ZD6126 was dosed using a split dose regimen of 100 mg/kg ZD6126, followed by a time interval, followed by a further 100 mg/kg ZD6126; doses were given intraperitoneally (i.p.) in saline with a small amount of 1% sodium carbonate added to aid the dissolution of ZD6126. The time intervals used were 1, 2, 3, 4 and 6 hours.

murine KHT sarcoma [7] = assay: KHT sarcoma tumour model, ZD6126 and radiation (tumour cell survival, excision and colony formation); assay type: in vivo, mice
Protocol: The murine KHT sarcoma grown in C3H mice was also used to confirm the advantage of combining ZD6126 and radiation. Tumours were treated with either radiation alone (0, 5, 10, 15 or 20 Gy single dose), ZD6126 100 mg/kg i.p., or radiation followed 1 hour later by ZD6126 100 mg/kg i.p.. The effects of either radiation alone, ZD6126 alone or the combination on tumour cell survival was assessed 24 hours later by excising the tumour, disaggregating the cells and determining the number of colonies formed after 10-14 days. Surviving fraction compared to untreated cells was then determined.

## [NH2][Pt]([NH2])([Cl])[Cl] [Cisplatin, cis-Platinum(lI)Diammine Dichloride]
Murine KHT sarcoma [1]
  cell killing: approximately 98%
[2]
  Mean growth delay (vs control) - days: 2.1 days
[3]
  growth delay (time to reach 2× starting volume) compared to control tumours: 6.0 days
[4]
  Mean growth delay (vs control) - days: 7.7 days

## COc1cc2c(c(OC)c1OC)-c1ccc(OP(=O)(O)O)cc1[C@@H](NC(C)=O)CC2 [ZD6126, (5S)-5-(acetylamino)-9,10,11-trimethoxy-6,7-dihydro-5H-dibenzo[a,c]cyclohepten-3-yl dihydrogen phosphate]
[5]; regimen iii) 100 mg/kg + 100 mg/kg, 2 hour interval
  split dose proportion giving the best anti-tumour effect: best effect was seen with equal split doses
[5]; regimens i) 25+175, iii) 100+100 or iv) 150+50 mg/kg, 2 hour interval
  significance of the greater effect of divided doses over a single dose: significant
[5]; total 200 mg/kg i.p. in two doses 2 hours apart, regimens i) to v)
  anti-tumour effect, as measured by surviving fraction of tumour cells, divided doses compared with single dose: greater with divided doses of ZD6126 than with a single dose of 200 mg/kg ZD6126
[6]
  surviving fraction of tumour cells, divided doses compared with single dose: significantly more effective in this model than a single 200 mg/kg dose
Murine KHT sarcoma [7]; ZD6126 alone with no radiation
  enhanced cell killing over controls: 40 fold
Murine KHT sarcoma [7]; radiation dose 0 Gy, ZD6126 100 mg/kg i.p., C3H mice, 24 hours later
  Plus ZD6126 % cell survival: 2.5%
Murine KHT sarcoma [7]; radiation dose 5 Gy followed 1 hour later by ZD6126 100 mg/kg i.p.
  Plus ZD6126 % cell survival: 0.16%
Murine KHT sarcoma [7]; radiation dose 10 Gy followed 1 hour later by ZD6126 100 mg/kg i.p.
  Plus ZD6126 % cell survival: 0.015%
Murine KHT sarcoma [7]; radiation dose 15 Gy followed 1 hour later by ZD6126 100 mg/kg i.p.
  Plus ZD6126 % cell survival: 0.0016%
